Source: patent US12677847B2, “Methods and formulations for reducing bovine emissions” (Elanco US Inc., priority 2015, dated 2026)

Columns and labels:
[1] = test system: cattle; assay: Reduction of ammonia gas emissions from cattle fed lubabegron for 91 days in cattle pen enclosures; format: in vivo
Excerpt: Prepare lubabegron (L) as 4.5 g/lb of Type A Medicated Article. In a facility having at least eight cattle pen enclosures (CPEs), test two cycles of cattle, each cycle representing all dose (0, 1.25, 5, and 20 g/ton) and gender (steer and heifer) combinations. For the purpose of this example, a cycle refers to a group of 112 animals housed concurrently. Within each cycle, there are 2 cohorts of animals (56 animals per cohort). A cohort refers to a group of same gender animals representing each of the 4 doses. Up to 4 cycles are used to provide a total of 4 cohorts per gender.
Upon receipt of the cattle, allocate the cattle to CPEs to acclimate for 7 days. After the acclimation phase, for 91 days orally treat via feed one fourth of the cattle allocated to CPEs L 0 g/ton/day; one fourth 1.25 g/ton/day; 5 g/ton/day; and 20 g/ton/day (100% dry matter basis). Provide feed and water ad libitum. On day 91, collect body weight and load cattle for transport to the slaughter facility. On day 92, slaughter the cattle and evaluate the carcass. During the study, monitor and collect ammonia gas emissions data. Measure the ammonia emissions over the treatment period and normalize by body weight (BW) for the period (Days 0-7, 0-14, 0-28, 0-56, and 0-91) and hot carcass weight (HCW) (Days 0-91) (g of gas/animal; g of gas/lb of live BW; g of gas/lb of HCW). Using the process described above, the following results are achieved.

[2] = test system: cattle; assay: Reduction of carbon dioxide gas emissions from cattle fed lubabegron for 14 days in individual chambers; format: in vivo
Excerpt: Prepare lubabegron (L) as 4.5 g/lb of Type A Medicated Article. In an appropriate facility having cattle chambers or rooms for individual animals (chambers), test ten cycles of twelve cattle each, each cycle representing all dose (0, 1.25, 5, and 20 g/ton) with a mixture of genders (steer and heifer).
Upon receipt of the cattle, allocate the cattle to chambers to acclimate for 7 days. After the acclimation phase, for 14 days orally treat via feed one fourth of the cattle allocated to chambers L 0 g/ton/day; one fourth 1.25 g/ton/day; 5 g/ton/day; and 20 g/ton/day (100% dry matter basis). Provide feed and water ad libitum. On day 14, collect body weight and load cattle for transport to the slaughter facility. On day 15, slaughter the cattle and evaluate the carcass. During the study, monitor and collect carbon dioxide gas emissions data. […] Using the process described above, the following results are achieved.

## CC(C)(Cc1ccc(Oc2ncccc2C#N)cc1)NC[C@H](O)COc1ccccc1-c1cccs1 [lubabegron]
[1]; 1.25 g/ton in feed, Day 0-7
  Reduction, as compared to control, g of NH3 gas/animal: 5% (5%)
  Reduction, as compared to control, g of NH3 gas/lb of live BW: 5% (5%)
[1]; 1.25 g/ton in feed, Day 0-14
  Reduction, as compared to control, g of NH3 gas/animal: 12%
  Reduction, as compared to control, g of NH3 gas/lb of live BW: 14%
[1]; 1.25 g/ton in feed, Day 0-28
  Reduction, as compared to control, g of NH3 gas/animal: 15%
  Reduction, as compared to control, g of NH3 gas/lb of live BW: 16%
[1]; 1.25 g/ton in feed, Day 0-56
  Reduction, as compared to control, g of NH3 gas/animal: 11%
  Reduction, as compared to control, g of NH3 gas/lb of live BW: 13%
[1]; 1.25 g/ton in feed, Day 0-91
  Reduction, as compared to control, g of NH3 gas/animal: 9%
  Reduction, as compared to control, g of NH3 gas/lb of HCW: 13%
  Reduction, as compared to control, g of NH3 gas/lb of live BW: 11%
[1]; 5 g/ton in feed, Day 0-7
  Reduction, as compared to control, g of NH3 gas/animal: 7%
  Reduction, as compared to control, g of NH3 gas/lb of live BW: 8%
[1]; 5 g/ton in feed, Day 0-14
  Reduction, as compared to control, g of NH3 gas/animal: 16%
  Reduction, as compared to control, g of NH3 gas/lb of live BW: 17%
[1]; 5 g/ton in feed, Day 0-28
  Reduction, as compared to control, g of NH3 gas/animal: 20%
  Reduction, as compared to control, g of NH3 gas/lb of live BW: 21%
[1]; 5 g/ton in feed, Day 0-56
  Reduction, as compared to control, g of NH3 gas/animal: 16%
  Reduction, as compared to control, g of NH3 gas/lb of live BW: 18%
[1]; 5 g/ton in feed, Day 0-91
  Reduction, as compared to control, g of NH3 gas/animal: 12%
  Reduction, as compared to control, g of NH3 gas/lb of HCW: 16%
  Reduction, as compared to control, g of NH3 gas/lb of live BW: 14%
[1]; 20 g/ton in feed, Day 0-7
  Reduction, as compared to control, g of NH3 gas/animal: 21%
  Reduction, as compared to control, g of NH3 gas/lb of live BW: 22%
[1]; 20 g/ton in feed, Day 0-14
  Reduction, as compared to control, g of NH3 gas/animal: 27% (27%)
  Reduction, as compared to control, g of NH3 gas/lb of live BW: 27% (27%)
[1]; 20 g/ton in feed, Day 0-28
  Reduction, as compared to control, g of NH3 gas/animal: 25%
  Reduction, as compared to control, g of NH3 gas/lb of live BW: 26%
[1]; 20 g/ton in feed, Day 0-56
  Reduction, as compared to control, g of NH3 gas/animal: 19% (19%)
  Reduction, as compared to control, g of NH3 gas/lb of live BW: 19% (19%)
[1]; 20 g/ton in feed, Day 0-91
  Reduction, as compared to control, g of NH3 gas/animal: 13%
  Reduction, as compared to control, g of NH3 gas/lb of HCW: 17%
  Reduction, as compared to control, g of NH3 gas/lb of live BW: 15%
[2]; 1.25 g/ton in feed, Day 0-7
  Reduction, as compared to control, g of CO2 gas/animal: (0.2%)
  Reduction, as compared to control, g of CO2 gas/lb of live BW: 0%
[2]; 1.25 g/ton in feed, Day 0-14
  Reduction, as compared to control, g of CO2 gas/animal: (3%)
  Reduction, as compared to control, g of CO2 gas/lb of HCW: 4%
  Reduction, as compared to control, g of CO2 gas/lb of live BW: 2%
[2]; 1.25 g/ton in feed, Day 7-14
  Reduction, as compared to control, g of CO2 gas/animal: (5%)
  Reduction, as compared to control, g of CO2 gas/lb of HCW: 6%
  Reduction, as compared to control, g of CO2 gas/lb of live BW: 5%
[2]; 5 g/ton in feed, Day 0-7
  Reduction, as compared to control, g of CO2 gas/animal: (4%)
  Reduction, as compared to control, g of CO2 gas/lb of live BW: 3%
[2]; 5 g/ton in feed, Day 0-14
  Reduction, as compared to control, g of CO2 gas/animal: (7%)
  Reduction, as compared to control, g of CO2 gas/lb of HCW: 7%
  Reduction, as compared to control, g of CO2 gas/lb of live BW: 6%
[2]; 5 g/ton in feed, Day 7-14
  Reduction, as compared to control, g of CO2 gas/animal: (10%)
  Reduction, as compared to control, g of CO2 gas/lb of HCW: 10%
  Reduction, as compared to control, g of CO2 gas/lb of live BW: 9%
[2]; 20 g/ton in feed, Day 0-7
  Reduction, as compared to control, g of CO2 gas/animal: (4%)
  Reduction, as compared to control, g of CO2 gas/lb of live BW: 4%
[2]; 20 g/ton in feed, Day 0-14
  Reduction, as compared to control, g of CO2 gas/animal: (7%)
  Reduction, as compared to control, g of CO2 gas/lb of HCW: 7%
  Reduction, as compared to control, g of CO2 gas/lb of live BW: 6%
[2]; 20 g/ton in feed, Day 7-14
  Reduction, as compared to control, g of CO2 gas/animal: (9%)
  Reduction, as compared to control, g of CO2 gas/lb of HCW: 10%
  Reduction, as compared to control, g of CO2 gas/lb of live BW: 9%
